Data reported in US20110224214A1, “PROCESS FOR PREPARING POLYMORPH” (SANOFI-AVENTIS U.S. LLC, priority 2008, published 2011).
Entries after “also recorded” stand apart in the source; their conditions may differ.

What was measured:
[1] = target: peripheral-type benzodiazepine receptors (Homo sapiens, UniProt P30536); details: cited from earlier work
[2] = stability profile of the crystalline form; type: physicochemical
[3] = polymorphic stability during wet granulation (XRPD); type: physicochemical; details: wet granulation of Example 6, dried at 50° C. for 2 hours
Protocol: The sample prepared according the Example 5, above was used to prepare a wet granulation formulation with the following composition: […]
The drug substance product of Example 5, lactose, microcrystalline cellulose (Avicel®, available from FMC BioPolymer, Philadelphia, Pa.), and sodium starch glycolate were pre-blended by screening five times with a 20 mesh screen. For the granulating fluid, the hydroxypropylmethylcellulose was dissolved in hot water at 5% concentration then cooled to 20° C. The sodium lauryl sulfate was dissolved in the cooled granulating fluid at 1.5% concentration. Approximately 50% water (relative to the weight of total solids) was used to prepare the granulation; the granulating fluid was added dropwise to the premixed powders while mixing in a mortar and pestle. The granulation was dried at 50° C. for 2 hours, and then ground in a mortar and pestle prior to analysis.
XRPD patterns were obtained with a Bruker D8® ADVANCE X-ray powder diffractometer using copper K-alpha radiation. The instrument was equipped with parallel beam optics, and the tube voltage and amperage were set to 40 kV and 40 mA, respectively. Samples were scanned at a rate of 1.0 degree/minute from 2 to 40 degrees in angle 2-theta.

[4] = impurity profile by HPLC after annealing; type: physicochemical; details: annealed at 80° C. for 1 hour
Protocol: 4.0 g of drug substance were dissolved in 200 mL of a 50/50 (by volume) mixture of DCM and EtOH at 20° C. The mixture was stirred for about 1 hour. The resulting clear solution was spray dried in a Buchi B290 Mini Spray Dryer by pumping the solution through a 0.7 mm nozzle (commercially available from Buchi) at approximately 2 to 3 mL/minute. The system was operated at an inlet gas temperature of 100° C. and an outlet gas temperature of approximately 70° C. The solvent was removed to isolate the solid (approximately 3.0 g).
The HPLC method parameters utilized in Example 4 were as follows: System HP 1050, column-Waters C8 Symmetry Shield 5 um (4.6×150 mm), Mobile phase (“A”): 0.05% formic acid in water, Mobile phase (“B”): 0.05% formic acid in acetonitrile, injection volume: 10 μl, wavelength: 258 nm, and flow rate: 0.8 mL/minute. A gradient method was used according to the time table below.

peripheral-type benzodiazepine receptors, sequence (P30536 whole entry): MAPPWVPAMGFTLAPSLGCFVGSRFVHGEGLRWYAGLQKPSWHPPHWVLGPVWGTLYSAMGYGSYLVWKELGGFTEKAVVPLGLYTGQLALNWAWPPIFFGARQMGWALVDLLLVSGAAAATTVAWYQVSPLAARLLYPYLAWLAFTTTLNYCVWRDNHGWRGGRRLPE

Row | stability profile to support use in a pharmaceutical product [2] | changes in the impurity profile after the annealing process (HPLC) [4] | SMILES | affinity for the peripheral-type benzodiazepine receptors [1] | conversion of Form II to crystalline Form I during the wet granulation process (XRPD) [3]
1 |  |  | CN(C)C(=O)Cc1nn(-c2ccccc2)c(=O)c2c1c1ccc(Cl)cc1n2C [7-Chloro-N,N,5-trimethyl-4-oxo-3-phenyl-3,5-dihydro-4H-pyridazino[4,5-b]indole-1-acetamide] | high affinity | 
2 | sufficient stability profile | no changes in the impurity profile | CN(C)C(=O)Cc1nn(-c2ccccc2)c(=O)c2c1c1ccc(Cl)cc1n2C [Form II, 7-chloro-N,N,5-trimethyl-4-oxo-3-phenyl-3,5-dihydro-4H-pyridazino[4,5-b]indole-1-acetamide] |  | no evidence of the Form II solid converting to crystalline Form I; also recorded: stable with respect to wet granulation
